Assay [1] has as its system ileum segment of ICR mice. The experiment in a line: Spontaneous ileum contraction. The arrangement: species or system mouse. As to conditions: 0.01, 0.1, and 1 μmol/L applied cumulatively. The method, then: ICR mice were fasted overnight and sacrificed by decapitation, and the ileum was removed and the luminal contents were gently flushed out with ice‐cold modified Krebs buffer (NaCl, 120.7 mmol/L; KCl, 5.9 mmol/L; NaHCO3, 15.5 mmol/L; MgCl2, 1.2 mmol/L; NaH2PO4, 1.2 mmol/L; CaCl2, 2.5 mmol/L; glucose, 11.5 mmol/L). The ileum segment (approximately 5 mm in length) was suspended in a 10‐mL organ bath filled with oxygenated (95% O2 and 5% CO2) modified Krebs buffer at 37°C. One end of the ileum segment was tied to a hook and the other end was secured with a silk thread to an isometric force transducer (MLT050/A, ADInstruments) connected to a data acquisition system (PowerLab 8/30 ML870 and Octal Bridge Amp ML228, ADInstruments). The ileum segment was subjected to an initial tension of 0.3 to 0.4 g and was allowed to equilibrate for at least 30 minutes. After the equilibration period, spontaneous contractions were measured for 3 minutes (pretreatment) and then increasing concentrations of a test compound (0.01, 0.1, and 1 μmol/L) were cumulatively applied at 3‐minute intervals. LabChart software (ADInstruments) was used to analyze the spontaneous contractions. The mean amplitude of spontaneous contractions at each concentration was normalized to that observed at pretreatment.

In another assay the target is T1, human M1R (Homo sapiens, UniProt P11229).
T1 sequence (P11229 1-460): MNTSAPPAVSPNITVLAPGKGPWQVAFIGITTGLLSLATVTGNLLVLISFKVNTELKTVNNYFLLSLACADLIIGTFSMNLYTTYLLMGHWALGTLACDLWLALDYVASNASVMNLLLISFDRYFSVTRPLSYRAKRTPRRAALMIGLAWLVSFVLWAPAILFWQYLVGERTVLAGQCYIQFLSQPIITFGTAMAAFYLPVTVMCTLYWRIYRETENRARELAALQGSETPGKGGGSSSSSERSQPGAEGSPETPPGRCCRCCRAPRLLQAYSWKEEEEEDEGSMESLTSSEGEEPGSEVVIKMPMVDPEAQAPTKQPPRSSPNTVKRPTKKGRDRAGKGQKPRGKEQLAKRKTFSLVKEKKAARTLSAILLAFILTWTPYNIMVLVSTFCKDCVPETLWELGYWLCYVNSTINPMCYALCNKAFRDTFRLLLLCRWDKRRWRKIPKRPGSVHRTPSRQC
The assay is described as follows: Ca2+ mobilization assay, agonist activity (absence of ACh), CHO‐K1 cells. It counts as cell-based. Details: expressed in transfected cells; host or cells: CHO-K1. The conditions noted are these: for margin between PAM and agonist activities: CHO‐K1 cells expressing human M1R. Here is the method: Chinese hamster ovary (CHO)‐K1 cells expressing M1R–M5R were plated on a 96‐well black, clear bottom plate at 30 000 cells/well and incubated at 37°C in an atmosphere of 5% CO2 for 1 day. On the day of the assay, cells were incubated with calcium dye buffer (Hanks’ Balanced Salt Solution (HBSS) containing 20 mmol/L HEPES, 0.1% fatty acid‐free bovine serum albumin (BSA), 0.08% pluronic F127 (Dojindo Laboratories), 2.5 μg/mL Fluo‐4 (Dojindo Laboratories), and 1.25 mmol/L probenecid (Dojindo Laboratories)) for 30 minutes at 37°C in an atmosphere of 5% CO2 and then incubated for 30 minutes at room temperature. To measure Ca^2+ mobilization using CellLux (PerkinElmer), cells were stimulated with T‐495 or MK‐7622 (0.01‐1000 nmol/L for PAM activity; 0.3‐10 000 nmol/L for agonist activity) in assay buffer (HBSS containing 20 mmol/L HEPES and 0.1% fatty acid‐free BSA) with or without an EC20 concentration of ACh. The inflection point (IP) and EC50 values were calculated using the following equation by GraphPad Prism 5 software (GraphPad Software Inc): Y=Bottom+(Top-Bottom)/1+10^(Log IPorEC50-X×HillSlope))
where X and Y are the log concentration of a compound and the percentage of Ca^2+ response, respectively, and Top and Bottom are the upper and lower plateaus, respectively.

In a further assay the target is T2, Tachykinin NK1 (Homo sapiens, UniProt P25103).
T2 construct: purchased Eurofins Panlabs Taiwan Ltd
T2 sequence (P25103 whole entry): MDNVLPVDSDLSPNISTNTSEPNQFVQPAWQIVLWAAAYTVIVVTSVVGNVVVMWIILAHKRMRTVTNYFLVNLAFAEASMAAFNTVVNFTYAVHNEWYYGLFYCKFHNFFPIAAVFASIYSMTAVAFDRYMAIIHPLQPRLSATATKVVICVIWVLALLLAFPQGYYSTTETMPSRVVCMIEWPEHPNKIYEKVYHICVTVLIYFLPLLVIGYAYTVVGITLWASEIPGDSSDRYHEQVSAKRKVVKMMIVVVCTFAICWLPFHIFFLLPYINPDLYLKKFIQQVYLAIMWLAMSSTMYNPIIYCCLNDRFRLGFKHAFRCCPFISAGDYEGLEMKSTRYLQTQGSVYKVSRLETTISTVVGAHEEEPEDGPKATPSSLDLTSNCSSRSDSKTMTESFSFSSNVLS
The experiment in a line: Selectivity panel. It is filed as binding. The text has this:
(§1) The selectivity of T‐495 at 10 μmol/L against a panel of 106 targets, including receptors, enzymes, ion channels, and transporters, was characterized (Eurofins Panlabs Taiwan Ltd., Taipei, Taiwan).

The target in another assay is T3, Dopamine D1 (Homo sapiens, UniProt P21728).
T3 construct: purchased Eurofins Panlabs Taiwan Ltd
T3 sequence (P21728 whole entry): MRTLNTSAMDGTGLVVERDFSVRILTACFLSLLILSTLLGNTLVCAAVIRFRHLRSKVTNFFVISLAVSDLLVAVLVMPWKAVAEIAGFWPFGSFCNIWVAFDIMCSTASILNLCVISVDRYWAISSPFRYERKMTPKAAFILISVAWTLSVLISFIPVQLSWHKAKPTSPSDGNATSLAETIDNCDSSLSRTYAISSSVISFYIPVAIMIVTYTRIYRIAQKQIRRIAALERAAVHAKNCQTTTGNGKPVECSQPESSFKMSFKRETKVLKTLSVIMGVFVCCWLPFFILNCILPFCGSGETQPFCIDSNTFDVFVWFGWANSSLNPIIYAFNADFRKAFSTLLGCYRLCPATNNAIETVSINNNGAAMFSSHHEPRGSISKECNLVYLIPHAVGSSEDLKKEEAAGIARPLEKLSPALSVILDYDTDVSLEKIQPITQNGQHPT
The assay is described as follows: Selectivity panel. It is filed as binding.
Source text: as §1

The subject of assay [2] is Calcium channel L-type, benzothiazepine. The assay is described as follows: Selectivity panel. It counts as binding.
Source text: as §1

The target in assay [3] is T4, Transporter, norepinephrine (NET) (Homo sapiens, UniProt P23975).
T4 construct: purchased Eurofins Panlabs Taiwan Ltd
T4 sequence (P23975 whole entry): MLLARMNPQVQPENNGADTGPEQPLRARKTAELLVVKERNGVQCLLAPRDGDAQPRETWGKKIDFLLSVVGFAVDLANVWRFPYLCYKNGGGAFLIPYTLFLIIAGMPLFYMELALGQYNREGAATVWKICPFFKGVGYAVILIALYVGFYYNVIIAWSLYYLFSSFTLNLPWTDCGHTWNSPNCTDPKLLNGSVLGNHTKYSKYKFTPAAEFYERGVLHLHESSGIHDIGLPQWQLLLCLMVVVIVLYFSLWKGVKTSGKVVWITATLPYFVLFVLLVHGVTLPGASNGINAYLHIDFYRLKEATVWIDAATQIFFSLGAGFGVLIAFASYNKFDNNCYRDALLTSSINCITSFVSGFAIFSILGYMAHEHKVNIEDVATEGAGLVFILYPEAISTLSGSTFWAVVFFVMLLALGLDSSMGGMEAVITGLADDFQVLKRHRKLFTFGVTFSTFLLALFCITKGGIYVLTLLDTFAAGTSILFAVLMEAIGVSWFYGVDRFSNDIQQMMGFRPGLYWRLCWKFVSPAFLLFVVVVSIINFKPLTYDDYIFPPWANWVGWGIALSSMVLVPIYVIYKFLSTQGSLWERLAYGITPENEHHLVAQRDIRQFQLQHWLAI
The assay is described as follows: Selectivity panel. It is filed as binding.
Source text: as §1

Assay [4] relates to Calcium channel L-type, phenylalkylamine. The experiment in a line: Selectivity panel. It counts as binding.
Source text: as §1

For another assay, the system named is Serotonin 5-HT4. The experiment in a line: Selectivity panel. It counts as binding.
Source text: as §1

The subject of another assay is Glutamate, NMDA, glycine. The experiment in a line: Selectivity panel. It counts as binding.
Source text: as §1

In a further assay the target is T5, IP (PGI2) (Homo sapiens, UniProt P43119).
T5 construct: purchased Eurofins Panlabs Taiwan Ltd
T5 sequence (P43119 whole entry): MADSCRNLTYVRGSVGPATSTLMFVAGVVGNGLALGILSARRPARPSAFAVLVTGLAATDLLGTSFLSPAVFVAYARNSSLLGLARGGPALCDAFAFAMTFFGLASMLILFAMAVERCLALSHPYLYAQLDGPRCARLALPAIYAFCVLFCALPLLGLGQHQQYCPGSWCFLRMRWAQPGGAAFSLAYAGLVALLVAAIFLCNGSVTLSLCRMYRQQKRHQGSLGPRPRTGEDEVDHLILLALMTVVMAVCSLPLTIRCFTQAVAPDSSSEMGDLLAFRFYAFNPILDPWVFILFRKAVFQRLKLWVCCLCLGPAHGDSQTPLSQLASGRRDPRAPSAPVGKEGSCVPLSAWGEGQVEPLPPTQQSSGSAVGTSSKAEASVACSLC
The assay is described as follows: Selectivity panel. It is filed as binding.
Source text: as §1

The next assay deals with T6, Calcium channel N-type (Rattus norvegicus, UniProt Q02294).
T6 construct: purchased Eurofins Panlabs Taiwan Ltd
The experiment in a line: Selectivity panel. It is filed as binding.
Source text: as §1

For another assay, the target named is T7, Opiate μ (OP3, MOP) (Homo sapiens, UniProt P35372).
T7 construct: purchased Eurofins Panlabs Taiwan Ltd
T7 sequence (P35372 whole entry): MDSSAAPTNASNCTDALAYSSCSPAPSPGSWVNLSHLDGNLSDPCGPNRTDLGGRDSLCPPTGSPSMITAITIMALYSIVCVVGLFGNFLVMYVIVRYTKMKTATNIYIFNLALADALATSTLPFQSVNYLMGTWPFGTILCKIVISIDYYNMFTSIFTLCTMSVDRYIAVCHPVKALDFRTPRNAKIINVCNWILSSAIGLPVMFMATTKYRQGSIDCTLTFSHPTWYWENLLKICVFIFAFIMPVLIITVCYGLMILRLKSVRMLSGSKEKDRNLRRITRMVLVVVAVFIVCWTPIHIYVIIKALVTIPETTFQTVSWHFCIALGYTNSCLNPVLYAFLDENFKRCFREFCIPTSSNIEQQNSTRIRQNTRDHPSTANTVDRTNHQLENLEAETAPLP
The experiment in a line: Selectivity panel. It counts as binding.
Source text: as §1

A further assay deals with Imidazoline I2, central. The assay is described as follows: Selectivity panel. It is filed as binding.
Source text: as §1

The next assay deals with T8, Cannabinoid CB1 (Homo sapiens, UniProt P21554).
T8 construct: purchased Eurofins Panlabs Taiwan Ltd
T8 sequence (P21554 whole entry): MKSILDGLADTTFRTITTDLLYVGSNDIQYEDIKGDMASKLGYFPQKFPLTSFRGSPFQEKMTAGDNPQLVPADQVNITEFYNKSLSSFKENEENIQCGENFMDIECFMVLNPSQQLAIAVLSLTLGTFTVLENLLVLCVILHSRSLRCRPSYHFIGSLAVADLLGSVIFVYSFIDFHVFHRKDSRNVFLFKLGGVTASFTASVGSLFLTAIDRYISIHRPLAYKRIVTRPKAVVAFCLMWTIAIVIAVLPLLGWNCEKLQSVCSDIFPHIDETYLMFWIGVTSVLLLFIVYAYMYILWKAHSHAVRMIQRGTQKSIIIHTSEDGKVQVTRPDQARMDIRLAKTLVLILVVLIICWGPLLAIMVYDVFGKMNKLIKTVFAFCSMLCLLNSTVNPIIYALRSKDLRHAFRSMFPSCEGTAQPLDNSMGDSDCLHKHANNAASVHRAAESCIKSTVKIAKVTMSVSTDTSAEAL
The experiment in a line: Selectivity panel. It is filed as binding.
Source text: as §1

In the next assay the target is T9, Melatonin MT1 (Homo sapiens, UniProt P48039).
T9 construct: purchased Eurofins Panlabs Taiwan Ltd
T9 sequence (P48039 whole entry): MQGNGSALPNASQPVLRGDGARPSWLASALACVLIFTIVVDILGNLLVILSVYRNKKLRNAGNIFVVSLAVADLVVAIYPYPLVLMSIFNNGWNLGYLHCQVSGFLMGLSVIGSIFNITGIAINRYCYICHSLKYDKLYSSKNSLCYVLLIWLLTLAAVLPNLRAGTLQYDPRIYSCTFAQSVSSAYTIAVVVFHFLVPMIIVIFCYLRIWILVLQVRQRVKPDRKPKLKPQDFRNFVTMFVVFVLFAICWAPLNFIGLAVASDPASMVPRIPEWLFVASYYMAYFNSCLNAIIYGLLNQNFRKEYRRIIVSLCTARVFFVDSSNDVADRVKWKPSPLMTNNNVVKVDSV
The experiment in a line: Selectivity panel. It counts as binding.
Source text: as §1

Another assay addresses T10, GABAB1A (Homo sapiens, UniProt Q9UBS5).
T10 construct: purchased Eurofins Panlabs Taiwan Ltd
The experiment in a line: Selectivity panel. It is filed as binding.
Source text: as §1

For the next assay, the target named is T11, Angiotensin AT2 (Homo sapiens, UniProt P50052).
T11 construct: purchased Eurofins Panlabs Taiwan Ltd
T11 sequence (P50052 whole entry): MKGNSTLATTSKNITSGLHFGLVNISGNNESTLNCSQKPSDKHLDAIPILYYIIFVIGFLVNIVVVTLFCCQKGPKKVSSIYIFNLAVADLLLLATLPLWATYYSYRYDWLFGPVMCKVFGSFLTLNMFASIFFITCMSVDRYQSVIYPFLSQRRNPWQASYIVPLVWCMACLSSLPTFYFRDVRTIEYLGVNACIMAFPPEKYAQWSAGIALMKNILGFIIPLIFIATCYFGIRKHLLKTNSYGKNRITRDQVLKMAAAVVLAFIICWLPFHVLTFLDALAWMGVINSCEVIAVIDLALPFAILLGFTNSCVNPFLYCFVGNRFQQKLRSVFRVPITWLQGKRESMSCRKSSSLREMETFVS
The assay is described as follows: Selectivity panel. It counts as binding.
Source text: as §1

The next assay has as its target T12, Tachykinin NK3 (Homo sapiens, UniProt P29371).
T12 construct: purchased Eurofins Panlabs Taiwan Ltd
The assay is described as follows: Selectivity panel. It counts as binding.
Source text: as §1

In a further assay the target is T13, Dopamine D2L (Homo sapiens, UniProt P14416).
T13 construct: purchased Eurofins Panlabs Taiwan Ltd
T13 sequence (P14416 whole entry): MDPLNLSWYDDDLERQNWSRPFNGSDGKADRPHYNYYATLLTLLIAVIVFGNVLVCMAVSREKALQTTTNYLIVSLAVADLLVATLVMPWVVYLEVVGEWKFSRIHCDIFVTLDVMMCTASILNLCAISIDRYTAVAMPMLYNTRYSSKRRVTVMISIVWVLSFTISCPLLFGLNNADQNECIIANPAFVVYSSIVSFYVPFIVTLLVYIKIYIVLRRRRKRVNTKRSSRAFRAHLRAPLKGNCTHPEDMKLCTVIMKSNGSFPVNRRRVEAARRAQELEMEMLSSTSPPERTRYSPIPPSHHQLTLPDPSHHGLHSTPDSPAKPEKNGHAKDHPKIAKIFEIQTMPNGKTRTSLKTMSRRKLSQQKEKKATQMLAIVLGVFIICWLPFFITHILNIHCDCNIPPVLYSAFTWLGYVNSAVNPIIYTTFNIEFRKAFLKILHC
The experiment in a line: Selectivity panel. It counts as binding.
Source text: as §1

A further assay relates to Glutamate, kainate. The assay is described as follows: Selectivity panel. It counts as binding.
Source text: as §1

A further assay deals with T14, Bradykinin B2 (Homo sapiens, UniProt P30411).
T14 construct: purchased Eurofins Panlabs Taiwan Ltd
T14 sequence (P30411 whole entry): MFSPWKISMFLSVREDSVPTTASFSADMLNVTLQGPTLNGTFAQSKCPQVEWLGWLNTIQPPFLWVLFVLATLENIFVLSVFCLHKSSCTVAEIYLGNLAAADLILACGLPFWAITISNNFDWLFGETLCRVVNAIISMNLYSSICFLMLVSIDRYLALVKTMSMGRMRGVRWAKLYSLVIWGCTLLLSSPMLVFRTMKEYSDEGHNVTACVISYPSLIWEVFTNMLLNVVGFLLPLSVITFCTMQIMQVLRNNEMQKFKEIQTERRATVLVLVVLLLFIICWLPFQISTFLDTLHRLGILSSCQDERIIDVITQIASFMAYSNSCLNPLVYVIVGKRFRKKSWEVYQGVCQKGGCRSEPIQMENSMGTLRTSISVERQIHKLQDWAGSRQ
The experiment in a line: Selectivity panel. It counts as binding.
Source text: as §1

T12 sequence (P29371 whole entry): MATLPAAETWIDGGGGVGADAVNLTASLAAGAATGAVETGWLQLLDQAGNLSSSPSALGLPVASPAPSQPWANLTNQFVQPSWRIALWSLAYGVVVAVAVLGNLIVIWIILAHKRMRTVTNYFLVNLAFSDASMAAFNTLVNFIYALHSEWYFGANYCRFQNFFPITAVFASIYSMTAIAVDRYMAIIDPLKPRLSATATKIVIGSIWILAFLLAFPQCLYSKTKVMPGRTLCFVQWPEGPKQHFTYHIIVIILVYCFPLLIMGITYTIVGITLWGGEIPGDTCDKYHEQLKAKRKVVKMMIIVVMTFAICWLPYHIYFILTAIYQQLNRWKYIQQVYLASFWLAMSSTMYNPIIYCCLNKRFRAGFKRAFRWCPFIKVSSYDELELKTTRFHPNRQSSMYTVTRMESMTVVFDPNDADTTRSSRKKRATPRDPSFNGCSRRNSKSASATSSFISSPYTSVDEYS

`Cc1ccc(Cc2cc3c(=O)n([C@H]4CCCC[C@@H]4O)cnc3c3ccccc23)cn1` [MK‐7622, 3‐((1S,2S)‐2‐hydroxycyclohexyl)‐6‐((6‐methylpyridin‐3‐yl)methyl)benzo[h]quinazolin‐4(3H)‐one, reference compound]: the “concentration at which spontaneous ileum contraction was increased” value in assay [1] is no more than 0.01 µmol/L. Besides, at human M1R, the response was half-maximal at 407 nM (EC50); the “margin between PAM and agonist activities” value is reported as 313 fold.

For the compound `Cc1c(Cc2ccc(Cl)nc2)cc2c(c1Cl)OCN([C@H]1CCC[C@@H]1O)C2=O` [T‐495, 8‐chloro‐6‐((6‐chloropyridin‐3‐yl)methyl)‐3‐((1S,2S)‐2‐hydroxycyclopentyl)‐7‐methyl‐2,3‐dihydro‐4H‐1,3‐benzoxazin‐4‐one], the “concentration at which spontaneous ileum contraction was increased” value in assay [1] came to 1 µmol/L. For the same compound, the EC50 at human M1R worked out at 649 nM. Also, the “margin between PAM and agonist activities” value on human M1R was 282 fold. For the same compound, the inhibition at 10 µM at Tachykinin NK1 is -2%; at Dopamine D1, -7%; in assay [3] it was 17%; against IP (PGI2) it was 16%; on Calcium channel N-type, 0%; at Opiate μ (OP3, MOP) it was 12%. For the same compound, the inhibition at 10 µM against Cannabinoid CB1 amounted to 14%; against Melatonin MT1, 29%; against GABAB1A, 5%; at Angiotensin AT2 it was 0%; at Tachykinin NK3, 5%; at Dopamine D2L, 4%. The inhibition at 10 µM at Bradykinin B2 is -4%. The “% inhibition at 10 μM” value in [2] was -5%; in assay [4], 19%; in the assay on Serotonin 5-HT4, 22%; in the assay with Glutamate, NMDA, glycine, 15%; in the assay with Imidazoline I2, central, 76%; in the assay with Glutamate, kainate, 13%.

Usually EC50 stands for the midpoint of the concentration-response curve. A higher EC50 goes with lower potency in that assay. By inhibition is commonly meant the relative decrease from the control value, in per cent. The % inhibition is the drop in the measured response relative to a control, in per cent.
